The text below walks through data of patent US11773078B2, “Furin inhibitors” (Glaxosmithkline Intellectual Property Development Limited, priority 2018, dated 2023).

Test [1] concerns the target T1, furin (endogenous protease) in U20S cells (Homo sapiens, UniProt P09958).
T1 construct: the endogenous protease cleaves GFP; endogenous in cells; host or cells: U2OS cells transduced with a BacMam reporter
The test is described as follows: Furin cell-based assay (image-based, Golgi-targeted GFP with BMP10 furin/PCSK cleavage site).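 Further: Read-out is mean GFP fluorescence of Golgi puncta per cell by high-content imaging, retained when furin inhibited, over an eleven-point 0.00017–10 µM series, four-parameter fit.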 As to conditions: 24-hour incubation, read-out: furin golgi cell pXC50 (converted).

The target of test [2] is T2, Furin (108-574-Tev-Flag-His) enzyme (Homo sapiens, UniProt P09958).
T2 construct: Furin (108-574-Tev-Flag-His) enzyme was expressed and purified from CHO cells; TEV cleavage site (C); FLAG (C); His (C); made in house; host or cells: CHO cells
T2 sequence (P09958 108-574): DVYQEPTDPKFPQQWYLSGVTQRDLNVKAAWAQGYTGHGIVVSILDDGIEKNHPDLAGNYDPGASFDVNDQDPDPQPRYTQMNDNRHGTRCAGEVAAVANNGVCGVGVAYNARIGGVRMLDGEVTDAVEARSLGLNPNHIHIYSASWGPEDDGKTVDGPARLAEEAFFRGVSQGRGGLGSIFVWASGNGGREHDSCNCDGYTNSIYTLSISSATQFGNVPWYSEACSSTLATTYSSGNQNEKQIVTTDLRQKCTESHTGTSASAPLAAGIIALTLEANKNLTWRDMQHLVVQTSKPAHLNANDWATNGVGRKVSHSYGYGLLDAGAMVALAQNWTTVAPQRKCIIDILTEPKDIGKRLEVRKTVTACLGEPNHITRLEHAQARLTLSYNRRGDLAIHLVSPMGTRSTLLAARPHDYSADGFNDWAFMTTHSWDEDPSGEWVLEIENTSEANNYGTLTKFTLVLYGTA
The test is described as follows: Furin enzyme assay. Format: biochemical. The conditions noted are these: for IC50: read-out: furin enzyme pIC50 (converted). The method in brief: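 Compounds ran as 11-point threefold dilutions (0.00017–10 μM final) against 40 pM furin, purified from CHO cells, for 2 h at room temperature. Buffer: 100 mM HEPES pH7.5 with 1 mM CaCl2 and 0.005% Triton X-100. Envision readout. Four-parameter curve gives pXC50.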

T1 sequence (P09958 108-794): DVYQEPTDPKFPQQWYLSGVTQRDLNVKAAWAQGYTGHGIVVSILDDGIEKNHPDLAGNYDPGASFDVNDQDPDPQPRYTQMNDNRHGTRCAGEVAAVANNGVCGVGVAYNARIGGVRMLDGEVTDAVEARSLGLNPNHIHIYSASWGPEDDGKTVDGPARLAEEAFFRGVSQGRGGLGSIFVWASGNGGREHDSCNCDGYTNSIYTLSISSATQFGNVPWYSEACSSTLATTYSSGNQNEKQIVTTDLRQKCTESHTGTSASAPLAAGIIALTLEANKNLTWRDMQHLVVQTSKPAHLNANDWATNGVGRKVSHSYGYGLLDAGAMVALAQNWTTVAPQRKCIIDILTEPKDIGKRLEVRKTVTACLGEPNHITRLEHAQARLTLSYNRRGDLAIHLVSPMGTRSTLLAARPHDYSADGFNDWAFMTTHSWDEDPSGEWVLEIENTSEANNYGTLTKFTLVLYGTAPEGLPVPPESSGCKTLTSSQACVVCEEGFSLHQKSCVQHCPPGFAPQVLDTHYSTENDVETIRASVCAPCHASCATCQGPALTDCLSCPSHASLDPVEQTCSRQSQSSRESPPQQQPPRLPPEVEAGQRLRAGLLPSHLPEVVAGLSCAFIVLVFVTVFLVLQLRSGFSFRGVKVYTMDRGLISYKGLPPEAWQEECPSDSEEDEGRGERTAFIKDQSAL

For the compound `CC(C)(CO)CN1CCN(c2ncc(Oc3cc(CN4CCC(CC(=O)O)CC4)cc(-c4cc(Cl)cc(Cl)c4)n3)cn2)CC1` [Example 280, 2-(1-((2-(3,5-dichlorophenyl)-6-((2-(4-(3-hydroxy-2,2-dimethylpropyl)piperazin-1-yl)pyrimidin-5-yl)oxy)pyridin-4-yl)methyl)piperidin-4-yl)acetic acid], the EC50 in test [1] is 15.8 nM. Also, in test [2], the “furin enzyme pIC50” value worked out at 8.3.
On the same counts, the results for `CC(=O)NCC1CCN(Cc2cc(Oc3ccc(N4CCN(C(C)CC(=O)O)CC4)nc3)nc(-c3cc(Cl)cc(Cl)c3)c2)CC1` (centres unmarked) [Example 281, 3-(4-(5-((4-((4-(Acetamidomethyl)piperidin-1-yl)methyl)-6-(3,5-dichlorophenyl)pyridin-2-yl)oxy)pyridin-2-yl)piperazin-1-yl)butanoic acid] are 39.8 nM and 9.5.
For `CC(=O)NCC1CCN(Cc2cc(Oc3cnc(N4CCN(C(C)CC(=O)O)CC4)nc3)nc(-c3cc(Cl)cc(Cl)c3)c2)CC1` (centres unmarked) [Example 282, 3-(4-(5-((4-((4-(acetamidomethyl)piperidin-1-yl)methyl)-6-(3,5-dichlorophenyl)pyridin-2-yl)oxy)pyrimidin-2-yl)piperazin-1-yl)butanoic acid], in test [1], the EC50 was 7.94 nM. Moreover, in test [2], the IC50 is 0.2 nM.
As for `CC(=O)NCC1CCN(Cc2cc(Oc3cnc(N4CCN(CC(C)C(=O)O)CC4)nc3)nc(-c3cc(Cl)cc(Cl)c3)c2)CC1` (centres unmarked) [Example 283, 3-(4-(5-((4-((4-(acetamidomethyl)piperidin-1-yl)methyl)-6-(3,5-dichlorophenyl)pyridin-2-yl)oxy)pyrimidin-2-yl)piperazin-1-yl)-2-methylpropanoic acid], in test [1], the EC50 is 25.1 nM. Further, in test [2], the “furin enzyme pIC50” value was determined as 9.1.
The like results for `CC(=O)NCC1CCN(Cc2cc(Oc3cnc(N4CCN(CC(C)C(N)=O)CC4)nc3)nc(-c3cc(Cl)cc(Cl)c3)c2)CC1` (centres unmarked) [Example 284, 3-(4-(5-((4-((4-(acetamidomethyl)piperidin-1-yl)methyl)-6-(3,5-dichlorophenyl)pyridin-2-yl)oxy)pyrimidin-2-yl)piperazin-1-yl)-2-methylpropanamide] were, in that order, 1.26 nM and 10.1.
For the compound `CC(=O)NCC1CCN(Cc2cc(Oc3cnc(N4CCN(CCS(C)(=O)=O)CC4)nc3)nc(-c3cc(Cl)cc(Cl)c3)c2)CC1` [Example 285, N-((1-((2-(3,5-dichlorophenyl)-6-((2-(4-(2-(methylsulfonyl)ethyl)piperazin-1-yl)pyrimidin-5-yl)oxy)pyridin-4-yl)methyl)piperidin-4-yl)methyl)acetamide], the EC50 in test [1] is 63.1 nM. Further, the “furin enzyme pIC50” value in test [2] was found to be 8.1.
The like results for `CC(=O)NCC1CCN(Cc2cc(Oc3cnc(N4CCN(CCS(N)(=O)=O)CC4)nc3)nc(-c3cc(Cl)cc(Cl)c3)c2)CC1` [Example 286, N-((1-((2-(3,5-dichlorophenyl)-6-((2-(4-(2-sulfamoylethyl)piperazin-1-yl)pyrimidin-5-yl)oxy)pyridin-4-yl)methyl)piperidin-4-yl)methyl)acetamide] were, in that order, 7.94 nM and 9.4.
`CC(=O)NCC1CCN(Cc2cc(Oc3ccc(N4CCN(CCS(=O)(=O)O)CC4)nc3)nc(-c3cc(Cl)cc(Cl)c3)c2)CC1` [Example 287, 2-(4-(5-((4-((4-(acetamidomethyl)piperidin-1-yl)methyl)-6-(3,5-dichlorophenyl)pyridin-2-yl)oxy)pyridin-2-yl)piperazin-1-yl)ethanesulfonic acid]: in test [1], the EC50 is 631 nM. Besides, in test [2], the IC50 was 2 nM.
`CCC(CN1CCN(c2ccc(Oc3cc(CN4CCC(CNC(C)=O)CC4)cc(-c4cc(Cl)cc(Cl)c4)n3)cn2)CC1)C(=O)O` (centres unmarked) [Example 288, 2-((4-(5-((4-((4-(acetamidomethyl)piperidin-1-yl)methyl)-6-(3,5-dichlorophenyl)pyridin-2-yl)oxy)pyridin-2-yl)piperazin-1-yl)methyl)butanoic acid]: in test [1], the EC50 was 50.1 nM. The “furin enzyme pIC50” value in test [2] is 9.4.
The like results for `CC(=O)NCC1CCN(Cc2cc(Oc3ccc(N4CCN(CCS(N)(=O)=O)CC4)nc3)nc(-c3cc(Cl)cc(Cl)c3)c2)CC1` [Example 289, N-((1-((2-(3,5-dichlorophenyl)-6-((6-(4-(2-sulfamoylethyl)piperazin-1-yl)pyridin-3-yl)oxy)pyridin-4-yl)methyl)piperidin-4-yl)methyl)acetamide] were, in that order, 5.01 nM and 8.6.
As for `CNC(=O)NCC1CCN(Cc2cc(Oc3ccc(N4CCN(CCS(C)(=O)=O)CC4)nc3)nc(-c3cc(Cl)cc(Cl)c3)c2)CC1` [Example 290, 1-((1-((2-(3,5-dichlorophenyl)-6-((6-(4-(2-(methylsulfonyl)ethyl)piperazin-1-yl)pyridin-3-yl)oxy)pyridin-4-yl)methyl)piperidin-4-yl)methyl)-3-methylurea], the EC50 in test [1] is 15.8 nM. In addition, the “furin enzyme pIC50” value in test [2] is recorded as 8.2.
With `CNC(=O)NCC1CCN(Cc2cc(Oc3cnc(N4CCN(CC(C)C(N)=O)CC4)nc3)nc(-c3cc(Cl)cc(Cl)c3)c2)CC1` (centres unmarked) [Example 291, 3-(4-(5-((6-(3,5-dichlorophenyl)-4-((4-((3-methylureido)methyl)piperidin-1-yl)methyl)pyridin-2-yl)oxy)pyrimidin-2-yl)piperazin-1-yl)-2-methylpropanamide], the EC50 in test [1] is 7.94 nM. The “furin enzyme pIC50” value in test [2] is listed as 10.7.
Consider `CNC(=O)NCC1CCN(Cc2cc(Oc3cnc(N4CCN(CC(C)C(=O)O)CC4)nc3)cc(-c3cc(Cl)cc(Cl)c3)c2)CC1` (centres unmarked) [Example 292, 3-(4-(5-((3′,5′-dichloro-5-((4-((3-methylureido)methyl)piperidin-1-yl)methyl)-[1,1′-biphenyl]-3-yl)oxy)pyrimidin-2-yl)piperazin-1-yl)-2-methylpropanoic acid], for which the EC50 in test [1] was 50.1 nM. Further, the “furin enzyme pIC50” value in test [2] was determined as 9.4.
On to `CC(=O)NCC1CCN(Cc2cc(Oc3ccc(N4CCN(CCS(C)(=O)=O)CC4)nc3)cc(-c3cc(Cl)cc(Cl)c3)c2)CC1` [Example 293, N-((1-((3′,5′-dichloro-5-((6-(4-(2-(methylsulfonyl)ethyl)piper-1-yl)pyridin-3-yl)oxy)-[1,1′-biphenyl]-3-yl)methyl)piperidin-4-yl)methyl)acetamide], for which the EC50 in test [1] was 158 nM. The “furin enzyme pIC50” value in test [2] was 8.2.
On the same counts, the results for `COC(=O)NCC1CCN(Cc2cc(Oc3cnc(N4CCN(CCC(=O)O)[C@@H](C)C4)nc3)nc(-c3cc(Cl)cc(Cl)c3)c2)CC1` [Example 294, (S)-3-(4-(5-((6-(3,5-dichlorophenyl)-4-((4-(((methoxycarbonyl)amino)methyl)piperidin-1-yl)methyl)pyridin-2-yl)oxy)pyrimidin-2-yl)-2-methylpiperazin-1-yl)propanoic acid] are 20 nM and 10.1.
On the same counts, the results for `CNC(=O)NCC1CCN(Cc2cc(Oc3cnc(N4CCN(CCC(C)O)CC4)nc3)nc(-c3cc(Cl)cc(Cl)c3)c2)CC1` (centres unmarked) [Example 295, 1-((1-((2-(3,5-dichlorophenyl)-6-((2-(4-(3-hydroxybutyl)piperazin-1-yl)pyrimidin-5-yl)oxy)pyridin-4-yl)methyl)piperidin-4-yl)methyl)-3-methylurea] are 0.794 nM and 9.5.
Turning to `CC(=O)NCC1CCN(Cc2cc(Oc3cnc(N4CC5CCC(C4)N5CCC(=O)O)nc3)nc(-c3cc(Cl)cc(Cl)c3)c2)CC1` [Example 296, 3-(3-(5-((4-((4-(acetamidomethyl)piperidin-1-yl)methyl)-6-(3,5-dichlorophenyl)pyridin-2-yl)oxy)pyrimidin-2-yl)-3,8-diazabicyclo[3.2.1]octan-8-yl)propanoic acid], the EC50 in test [1] was 10 nM. In addition, in test [2], the “furin enzyme pIC50” value was 10.6.
For the compound `COC(=O)CCN1CCN(c2ncc(Oc3cc(CN4CCC(CNC(C)=O)CC4)cc(-c4cc(Cl)cc(Cl)c4)n3)cn2)CC1` [Example 297, methyl 3-(4-(5-((4-((4-(acetamidomethyl)piperidin-1-yl)methyl)-6-(3,5-dichlorophenyl)pyridin-2-yl)oxy)pyrimidin-2-yl)piperazin-1-yl)propanoate], in test [1], the EC50 is 5.01 nM. Also, in test [2], the “furin enzyme pIC50” value is 9.4.
The like results for `C[C@@H](O)CN1CCN(c2ccc(Oc3cc(CN4CCC(CC(=O)O)CC4)cc(-c4cc(Cl)cc(Cl)c4)n3)cn2)CC1` [Example 299, (R)-2-(1-((2-(3,5-dichlorophenyl)-6-((6-(4-(2-hydroxypropyl)piperazin-1-yl)pyridin-3-yl)oxy)pyridin-4-yl)methyl)piperidin-4-yl)acetic acid] were, in that order, 31.6 nM and 8.5.
The like results for `O=C(O)CC1CCN(Cc2cc(Oc3ccc(N4CCN(CCO)CC4)nc3)nc(-c3cc(Cl)cc(Cl)c3)c2)CC1` [Example 300, 2-(1-((2-(3,5-dichlorophenyl)-6-((6-(4-(2-hydroxyethyl)piperazin-1-yl)pyridin-3-yl)oxy)pyridin-4-yl)methyl)piperidin-4-yl)acetic acid] were, in that order, 20 nM and 9.1.
Take `CC(CC1CCN(Cc2cc(Oc3cnc(N4CCN(C[C@@H](C)O)CC4)nc3)nc(-c3cc(Cl)cc(Cl)c3)c2)CC1)C(=O)O` (stereo partly drawn) [Example 301, 3-(1-((2-(3,5-dichlorophenyl)-6-((2-(4-((R)-2-hydroxypropyl)piperazin-1-yl)pyrimidin-5-yl)oxy)pyridin-4-yl)methyl)piperidin-4-yl)-2-methylpropanoic acid]: the EC50 in test [1] was 39.8 nM. Also, the “furin enzyme pIC50” value in test [2] was 9.6.
For `CC(=O)NCC1CCN(Cc2cc(Oc3cnc(N4CCN(C[C@@H](C)O)CC4)nc3)nc(-c3cc(Cl)cc(Cl)c3)c2)CC1` [Example 302], the EC50 in test [1] is 7.94 nM. For the same compound, the “furin enzyme pIC50” value in test [2] turned out to be 9.6.
